Assays:
[1] = tested on: PPD glucuronidation in pooled HLMs; test: Chemical inhibition of PPD glucuronidation in pooled HLMs; format: in vitro ADME, human; conditions: PPD 50 μM; for inhibition of PPD glucuronidation (in words): inhibitor 5, 50, and 200 μM
Method: Fluconazole, androsterone, estradiol, and hecogenin [25, 34] were used to inhibit their potential inhibitory effects on PPD glucuronidation in pooled HLMs. A set of concentrations (5, 50, and 200 μM) was used for all four inhibitors. The concentration of PPD was set at 50 μM. The reaction time and protein concentration were set at 60 min and 0.5 mg/mL, respectively. All other incubation conditions were the same as those for Glucuronidation of PPD in pooled HLMs described above. The concentration of organic solvent was 1% of the total incubation volume. An experimental group without inhibitors but with solvents was used as the control, in which the activities of PPD glucuronidation were designated as 100%. The activities of PPD glucuronidation in the inhibited samples were compared with the control to evaluate the remaining enzyme activity. For determination of IC50 (representing the concentration that inhibits 50% of the control activity) of hecogenin, experiments with a set of concentrations of hecogenin (1–400 μM) in pooled HLMs were conducted.

[2] = tested on: pooled human liver microsomes (HLMs); test: Kinetics of PPD glucuronidation by pooled human liver microsomes; format: in vitro ADME; conditions: formation of PPDG
Method: (§1) In vitro PPD glucuronidation was in an incubation volume of 100 μL. Incubation conditions were initially optimized for the linear product formation with respect to protein concentration (0.2–1 mg/mL), and incubation time (15–120 min). The stock solution of PPD was prepared in dimethyl sulfoxide (DMSO), and the final concentration of DMSO in the incubations was 1% (v/v). Briefly, the incubation mixture contained HLMs or RLMs (0.5 mg of protein/mL), UDPGA (2 mM), MgCl2 (4 mM), alamethicin (25 μg/mg protein), PPD (10–500 μM), and Tris–HCl buffer (50 mM, pH 7.4). The mixture was incubated for 5 min at 37 °C, and then the reaction was started by the addition of UDPGA and incubated in a shaking water bath for 60 min. The reaction was terminated by addition of 200 μL of ice-cold acetonitrile containing GRg1 (internal standard (IS), 0.5 μg/mL) and then centrifuged at 15,000× g for 10 min at 4 °C. The supernatant was evaporated to dryness under nitrogen gas at room temperature, and the residue was reconstituted with 200 µL of 20% acetonitrile. After centrifugation at 15,000× g for 10 min at 4 °C, 5 μL of the supernatants was subjected to analysis. Incubations without PPD and UDPGA were served as blank and negative controls, respectively.
(§2) Quantitative analysis was conducted on an Agilent 1290 infinity system (Agilent Technologies, Santa Clara, CA, USA) coupled with an MS/MS detector (6410 B Triple Quad LC/MS; Agilent Technologies) in negative ion mode. The chromatographic separations were performed on an ACQUITY UPLC HSS T3 column (100 mm × 2.1 mm i. d. (inner diameter), 1.8 μm) thermostated at 45 °C. The mobile phase consisted of A (5 mM ammonium acetate in water) and B (acetonitrile) at a flow rate of 0.4 mL/min. The gradient elution program was set as follow: 0–2 min 20%–50% B, 2–4 min 50%–60% B, 4–5 min 60% B and finally, reconditioning the column with 20% B for 1 min. Optimized ion source parameters were set as follows: gas temperature 325 °C; gas flow 10 L/min; nebulizer 35 psi; capillary voltage 3500 V; fragmentor voltage 265 V for PPDG and 215 V for IS; cell accelerator voltage 0 V; dwell time 200 ms. Data were acquired in multiple reaction monitor (MRM) mode for the following transitions: m/z 635.4 to m/z 375.1 for PPDG and m/z 799.5 to m/z 637.6 for IS, with the collision energy being set at 50 and 26 V, respectively.
(§3) All results were obtained from three replicates in different microsomal incubations, and all the data were expressed as mean ± SD. To estimate the kinetic parameters, data were transformed and Eadie–Hofstee curves were plotted, which help to identify kinetic models. […] In addition, CLmax was calculated according to the Equation (2). […]

[3] = tested on: pooled rat liver microsomes (RLMs); test: Kinetics of PPD glucuronidation by pooled rat liver microsomes; format: in vitro ADME; conditions: formation of PPDG
Method: as §1, §2, §3

[4] = biological target: T1, human recombinant UGT1A4 (Homo sapiens, UniProt P22310); test: Kinetics of PPD glucuronidation by recombinant UGT1A4; format: in vitro ADME; conditions: formation of PPDG
T1 sequence (P22310 29-534): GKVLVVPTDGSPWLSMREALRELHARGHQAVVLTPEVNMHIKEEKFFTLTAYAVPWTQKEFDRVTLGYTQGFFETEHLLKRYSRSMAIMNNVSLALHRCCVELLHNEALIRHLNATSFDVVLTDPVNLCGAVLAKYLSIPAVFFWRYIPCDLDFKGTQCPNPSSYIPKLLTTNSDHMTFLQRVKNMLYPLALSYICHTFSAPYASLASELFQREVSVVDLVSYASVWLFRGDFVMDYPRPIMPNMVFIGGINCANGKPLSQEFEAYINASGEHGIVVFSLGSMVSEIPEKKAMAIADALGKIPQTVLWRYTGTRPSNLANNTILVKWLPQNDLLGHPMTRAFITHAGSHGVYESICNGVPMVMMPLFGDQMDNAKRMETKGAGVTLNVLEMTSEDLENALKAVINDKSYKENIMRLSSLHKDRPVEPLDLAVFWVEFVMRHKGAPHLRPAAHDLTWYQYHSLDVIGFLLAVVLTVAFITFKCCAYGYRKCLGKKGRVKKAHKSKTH
Method: (§4) A kinetic study for PPD glucuronidation by human recombinant UGT 1A4 was also conducted by incubating PPD with human recombinant UGT 1A4 at protein concentration of 0.25 mg/mL for 1 h. All other incubation conditions were identical to those of glucuronidation of PPD in pooled HLMs.
(§5) All results were obtained from three replicates in different microsomal incubations, and all the data were expressed as mean ± SD. To estimate the kinetic parameters, data were transformed and Eadie–Hofstee curves were plotted, which help to identify kinetic models. Then kinetic parameters were obtained by fitting velocity data to the sigmoidal kinetic (Hill) model (Equation (1)) using Graph Pad Prism 5.0 software (San Diego, CA, USA). In addition, CLmax was calculated according to the Equation (2). (1) V=Vmax × [S]^n/S50n + [S]^n (2) CLmax = Vmax/S50 × n−1/n(n−1)^1/n
(§6) V is reaction velocity, Vmax is the maximum reaction velocity, [S] is the substrate concentration, S50 is the substrate concentration at 0.5 Vmax (analogous to Km in the Michaelis–Menten equation), n is the Hill coefficient (which reflects the degree of sigmoidicity of the velocity versus substrate-concentration relationship), CLmax is the maximum clearance, which provides an estimate of the highest clearance attained.

[5] = biological target: T2, human recombinant UGT1A3 (Homo sapiens, UniProt P35503); test: PPD glucuronidation with recombinant human UGT1A3; format: in vitro ADME; conditions: UGT1A3 0.25 mg protein/mL
T2 construct: purchased BD Gentest
T2 sequence (P35503 29-534): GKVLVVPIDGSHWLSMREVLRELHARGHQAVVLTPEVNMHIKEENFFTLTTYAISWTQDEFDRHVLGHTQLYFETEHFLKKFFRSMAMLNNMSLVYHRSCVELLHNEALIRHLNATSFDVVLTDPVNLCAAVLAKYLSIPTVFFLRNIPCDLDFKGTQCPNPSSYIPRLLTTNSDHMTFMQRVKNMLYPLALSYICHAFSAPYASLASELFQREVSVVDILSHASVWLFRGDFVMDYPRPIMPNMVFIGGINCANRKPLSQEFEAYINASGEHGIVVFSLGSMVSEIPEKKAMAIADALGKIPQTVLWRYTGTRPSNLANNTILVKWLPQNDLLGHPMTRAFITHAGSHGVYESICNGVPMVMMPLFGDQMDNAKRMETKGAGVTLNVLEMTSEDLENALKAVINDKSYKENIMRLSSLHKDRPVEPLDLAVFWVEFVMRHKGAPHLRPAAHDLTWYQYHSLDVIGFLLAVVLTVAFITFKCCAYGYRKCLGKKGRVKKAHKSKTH
Method: (§7) PPD glucuronidation was measured in reaction mixtures containing human recombinant UGT1A1, 1A3, 1A4, 1A6, 1A7, 1A8, 1A9, 1A10, 2B4, 2B7, 2B15, and 2B17. Three substrate concentrations (10, 50, and 200 μM) were used in this study. The incubation conditions were the same as those for Glucuronidation of PPD in pooled HLMs described above except for the protein concentration (0.25 mg/mL).

[6] = tested on: human recombinant UGT1A1, 1A6, 1A7, 1A8, 1A9, 1A10, 2B4, 2B7, 2B15, and 2B17; test: PPD glucuronidation with other recombinant human UGT isozymes; format: in vitro ADME; conditions: PPD 10, 50, and 200 μM, 0.25 mg protein/mL
Method: as §7

[7] = parameters: method as in PMID 23494798; conditions: previous studies ref 13; cited from earlier work
[8] = biological target: T1, human recombinant UGT1A4; test: PPD glucuronidation with recombinant human UGT1A4; format: in vitro ADME; parameters: purchased BD Gentest; conditions: UGT1A4 0.25 mg protein/mL
Method: as §7

[9] = substrate: CC(C)=CCC[C@](C)(O)C1CC[C@]2(C)[C@@H]1[C@H](O)CC1[C@@]3(C)CC[C@H](O)C(C)(C)C3CC[C@]12C; test: Kinetics of PPD glucuronidation by recombinant UGT1A4; format: in vitro ADME, human; conditions: other: formation of PPDG, recombinant UGT1A4, Hill kinetics, 10–500 μM PPD
Method: as §4, §5, §6

[10] = HLMs, Hill kinetics, 10–500 μM PPD
[11] = RLMs, Hill kinetics, 10–500 μM PPD

In the case of C[C@]12CC[C@@H](O)C[C@@H]1CC[C@@H]1[C@@H]2CC[C@]2(C)C(=O)CC[C@@H]12 [androsterone], the “inhibition of PPD glucuronidation (in words)” value (“inhibition” for short) ([1]; pooled HLMs 0.5 mg/mL) is reported as “weak inhibition”.

In the case of C[C@]12CC[C@@H]3c4ccc(O)cc4CC[C@H]3[C@@H]1CC[C@@H]2O [estradiol], the “inhibition” value ([1]; pooled HLMs 0.5 mg/mL) is reported as “weak inhibition”.

For hecogenin, the IC50 ([1]; pooled HLMs, hecogenin 1–400 μM) was 21.3 ± 4.31 µM, the “inhibition” value ([1]; pooled HLMs 0.5 mg/mL) was “concentration-dependent inhibitory effect” and the “inhibitory effect on PPD glucuronidation compared with the solvent control” value ([1]; inhibitor at 50 µM, pooled HLMs 0.5 mg/mL) was “more than 60%”.

For OC(Cn1cncn1)(Cn1cncn1)c1ccc(F)cc1F [Fluconazole, fluconazole], the “inhibition” value ([1]; pooled HLMs 0.5 mg/mL) was “no inhibition”.

For CC(C)=CCC[C@](C)(O)[C@H]1CC[C@]2(C)[C@@H]1[C@H](O)C[C@@H]1[C@@]3(C)CC[C@H](O)C(C)(C)[C@@H]3CC[C@]12C [PPD, 20(S)-protopanaxadiol], the Vmax ([2]; HLMs 0.5 mg protein/mL, Hill kinetics, 10–500 μM PPD, mean ± SD) was 0.32 ± 0.01 nmol/min/mg Protein, the S50 [2, 10] was 42.80 ± 0.73 µM and the “n (Hill coefficient)” value [2, 10] was 2.12 ± 0.24. It also gave a CLmax ([2]; HLMs, calculated by Equation (2)) of 3.70 ± 0.01 μL/min/mg Protein, a Vmax ([3]; RLMs 0.5 mg protein/mL, Hill kinetics, 10–500 μM PPD, mean ± SD) of 0.30 ± 0.01 nmol/min/mg Protein and an S50 [3, 11] of 20.68 ± 1.39 µM. The “n (Hill coefficient)” value [3, 11] was 2.50 ± 0.48, the CLmax ([3]; RLMs, calculated by Equation (2)) was 7.36 ± 0.27 μL/min/mg Protein and the Vmax ([4]; recombinant UGT1A4 0.25 mg/mL, Hill kinetics, 10–500 μM PPD, mean ± SD) was 0.31 ± 0.01 nmol/min/mg Protein. The “n (Hill coefficient)” value ([4]; recombinant UGT1A4, Hill kinetics, 10–500 μM PPD) was 2.34 ± 0.23, the CLmax ([4]; recombinant UGT1A4, calculated by Equation (2)) was 8.39 ± 0.79 μL/min/mg Protein and the “catalytic activity towards PPD glucuronidation” value ([5]; PPD 10 μM) was 0.02 ± 0.004 nmol/min/mg protein. The “catalytic activity towards PPD glucuronidation” value ([5]; PPD 50 μM) was 0.04 ± 0.004 nmol/min/mg protein, the “catalytic activity towards PPD glucuronidation” value ([5]; PPD 200 μM) was 0.04 ± 0.003 nmol/min/mg protein and the “PPD glucuronidation by other UGT isozymes (in words)” value [6] was “did not participate in this metabolism”. The oral bioavailability [7] was roughly 30%, the “catalytic activity towards PPD glucuronidation” value ([8]; PPD 10 μM) was 0.06 ± 0.01 nmol/min/mg protein and the “catalytic activity towards PPD glucuronidation” value ([8]; PPD 50 μM) was 0.18 ± 0.01 nmol/min/mg protein. For the same molecule, the “catalytic activity towards PPD glucuronidation” value ([8]; PPD 200 μM) was 0.35 ± 0.05 nmol/min/mg protein.

B1: human recombinant UGT 1A4 (Homo sapiens) (protein)
chain: GKVLVVPTDGSPWLSMREALRELHARGHQAVVLTPEVNMHIKEEKFFTLTAYAVPWTQKEFDRVTLGYTQGFFETEHLLKRYSRSMAIMNNVSLALHRCCVELLHNEALIRHLNATSFDVVLTDPVNLCGAVLAKYLSIPAVFFWRYIPCDLDFKGTQCPNPSSYIPKLLTTNSDHMTFLQRVKNMLYPLALSYICHTFSAPYASLASELFQREVSVVDLVSYASVWLFRGDFVMDYPRPIMPNMVFIGGINCANGKPLSQEFEAYINASGEHGIVVFSLGSMVSEIPEKKAMAIADALGKIPQTVLWRYTGTRPSNLANNTILVKWLPQNDLLGHPMTRAFITHAGSHGVYESICNGVPMVMMPLFGDQMDNAKRMETKGAGVTLNVLEMTSEDLENALKAVINDKSYKENIMRLSSLHKDRPVEPLDLAVFWVEFVMRHKGAPHLRPAAHDLTWYQYHSLDVIGFLLAVVLTVAFITFKCCAYGYRKCLGKKGRVKKAHKSKTH
notes: purchased BD Gentest
In the case of B1, the K0.5 [9] is reported as 18.49 ± 1.85 µM and the Vmax [9] is reported as 0.00031 µmol/min/mg.

— article PMC4813125, “Identification of Human UDP-Glucuronosyltransferase 1A4 as the Major Isozyme Responsible for the Glucuronidation of 20(S)-Protopanaxadiol in Human Liver Microsomes” (International Journal of Molecular Sciences, 2016)
